Patent US20240391923A1, “METHIONINE ADENOSYLTRANSFERASE 2A INHIBITOR FOR TREATING MTAP DELETION-TYPE CANCER” (SUZHOU GENHOUSE BIO CO., LTD., priority 2022, published 2024)
Where two headings read alike, the source gives them in different places.

Molecular target: MAT2A recombinant protein (Homo sapiens, UniProt P31153)
Test: MAT2A inhibitory activity (malachite green colorimetric enzyme assay)
Format: biochemical
Description: MAT2A catalyzes the reaction of L-methionine and ATP to generate S-adenosylmethionine (SAM), inorganic phosphonic acid, and inorganic diphosphonic acid. Malachite green reacts with inorganic phosphonic acid to generate a green product, and the enzyme activity of MAT2A can be indirectly reflected by detecting the content of the inorganic phosphonic acid in a sample.
The test compounds were formulated using DMSO and diluted 1:3 diluted through 10 concentration points to give a final starting concentration in the reaction system of 1000 nM. The test compounds at different concentrations described above were transferred to a 384-well plate. Experimental buffer (50 mM HEPES pH 7.5, 50 mM KCl, 10 mM MgCl2, 10 mM DTT) was prepared. 2×MAT2A recombinant protein was prepared using the buffer and added to a 384-well plate. A mixed solution of 2×L-methionine and ATP was prepared using the buffer, and added to a 384-well plate. The enzymatic reaction was started, and the reaction was carried out at room temperature for 60 min. 20 μL of a colorimetric detection reagent was added to the above system, and incubated at room temperature for 15 min. The absorbance at 630 nm was measured. The inhibition rate of the compound on the enzyme activity was calculated, and the inhibition rate value and the logarithm value of the compound concentration were fitted using non-linear regression (dose response-variable slope) to give the IC50 value of the test compound.

[1] = IC50 score class, read-out: MAT2A Inhibition (score)

Chain of MAT2A recombinant protein (P31153 whole entry): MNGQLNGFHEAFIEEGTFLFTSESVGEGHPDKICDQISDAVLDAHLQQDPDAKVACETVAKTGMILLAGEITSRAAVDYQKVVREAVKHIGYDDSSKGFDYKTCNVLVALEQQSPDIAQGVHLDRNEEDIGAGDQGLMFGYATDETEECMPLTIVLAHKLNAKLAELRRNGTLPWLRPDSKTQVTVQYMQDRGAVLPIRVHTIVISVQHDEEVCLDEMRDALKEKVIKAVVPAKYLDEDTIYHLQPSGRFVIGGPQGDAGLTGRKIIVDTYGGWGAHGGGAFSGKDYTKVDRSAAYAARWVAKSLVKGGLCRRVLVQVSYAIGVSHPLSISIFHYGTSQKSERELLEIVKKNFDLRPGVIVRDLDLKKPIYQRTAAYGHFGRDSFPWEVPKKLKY

IC50 [1] [nM] | IC50 (read-out: MAT2A Inhibition) [nM] | SMILES
> 1000 | > 1000 | CCn1cc2c(n1)c(=O)n(-c1ccc(OC)cc1)c1cc(Cl)ccc21 [Compound B11]
100 to 1000 | 908 | Cc1nnc2c(=O)n(-c3cccnc3)c3cc(Cl)ccc3n12 [Compound B23]
100 to 1000 | 115 | CCn1nc2c(=O)n(-c3cccnc3)c3cc(Cl)ccc3c2c1C(F)(F)F [Compound B24]
< 100 | 92.8 | CCn1nc2c(=O)n(-c3cccnc3)c3cc(Cl)ccc3c2c1C(F)F [Compound B25]
100 to 1000 | 349 | Cn1nc2c(=O)n(-c3cccnc3)c3cc(Cl)ccc3c2c1C(F)(F)F [Compound B26]
< 100 | 99.2 | Cn1ccc(Cn2ncc3c4ccc(Cl)cc4n(-c4cccnc4)c(=O)c32)n1 [Compound B168]
< 100 | 97.4 | Cn1cc2c(n1)c(=O)n(-c1cccc(O)c1)c1cc(OC(F)(F)F)ccc21 [Compound B169]
100 to 1000 | 220 | O=c1c2c(cnn2CC(F)F)c2ccc(Cl)cc2n1-c1cccnc1 [Compound B170]
100 to 1000 | 174 | COc1cccc(-n2c(=O)c3nn(C)cc3c3ccc(C(F)(F)F)nc32)c1 [Compound B184]
100 to 1000 | 379 | COc1ccc(-n2c(=O)c3nn(C)cc3c3ccc(Cl)cc32)cc1 [Compound B185]
100 to 1000 | 191 | Cn1cc2c(n1)c(=O)n(-c1ccc(OC(F)F)cc1)c1cc(Cl)ccc21 [Compound B186]
< 100 | 20 | Cn1cc2c(n1)c(=O)n(-c1c(F)cccc1F)c1nc(C(F)(F)F)ccc21 [Compound B195]
100 to 1000 | 122 | Cn1cc2c(n1)c(=O)n(-c1ccc3ncoc3c1)c1nc(C(F)(F)F)ccc21 [Compound B209]
100 to 1000 | 237 | Cn1cc2c(n1)c(=O)n([C@@H]1CCCOC1)c1cc(Cl)ccc21 [Compound B230]

Second part, the compound before the results:

SMILES | IC50 [1] [nM] | IC50 (read-out: MAT2A Inhibition) [nM]
CCn1cc2c(n1)c(=O)n(-c1ccncc1)c1cc(Cl)ccc21 [Compound B10] | > 1000 | > 1000
CCn1cc2c(n1)c(=O)n(-c1cccc(C(F)(F)F)c1)c1cc(Cl)ccc21 [Compound B15] | > 1000 | > 1000
CCn1cc2c(n1)c(=O)n(-c1cccnc1)c1cc(OC(F)(F)F)ccc21 [Compound B19] | 100 to 1000 | 125
O=c1c2nccnc2c2ccc(Cl)cc2n1-c1cccnc1 [Compound B50] | 100 to 1000 | 488
Cn1cc2c(n1)c(=O)n([C@H]1CC[C@H](O)CC1)c1cc(Cl)ccc21 [Compound B109] | 100 to 1000 | 483
Cn1cc2c(n1)c(=O)n(Cc1ccn[nH]1)c1cc(Cl)ccc21 [Compound B117] | < 100 | 41.9
COc1ccc(-n2c(=O)c3nn(C)cc3c3ccc(C(F)(F)F)nc32)cc1 [Compound B187] | 100 to 1000 | 284
Cn1cc2c(n1)c(=O)n(-c1cccc(OC(F)F)c1)c1nc(C(F)(F)F)ccc21 [Compound B190] | 100 to 1000 | 133
Cn1cc2c(n1)c(=O)n(-c1cccc(C(F)F)c1)c1nc(C(F)(F)F)ccc21 [Compound B194] | < 100 | 43.7
Cn1cc2c(n1)c(=O)n(Cc1cn[nH]c1)c1nc(C(F)(F)F)ccc21 [Compound B197] | < 100 | 90.4
Cn1cc2c(n1)c(=O)n(-c1ccn3ccnc3c1)c1cc(Cl)ccc21 [Compound B205] | < 100 | 71.1
Cn1cc2c(n1)c(=O)n(-c1ccc3ncoc3c1)c1cc(Cl)ccc21 [Compound B208] | 100 to 1000 | 178
O=c1c2nn(C3CCOCC3)cc2c2ccc(C(F)(F)F)nc2n1-c1cccnc1 [Compound B210] | 100 to 1000 | 603
Cn1cc2c(n1)c(=O)n(-c1cccc(NS(C)(=O)=O)c1)c1nc(C(F)(F)F)ccc21 [Compound B214] | < 100 | 14.9
